Experimental data: patent US9079913B2, “Spiro-oxindole MDM2 antagonists” (The Regents of the University of Michigan, priority 2009, dated 2015)
Like-named read-outs stand apart in the source and are kept apart here.

Experiments:
[1] = system: cancer cell lines with wild-type p53 / mutated or deleted p53 (ATCC); assay: Cell growth assay (WST-8), other cancer cell lines; type: cell-based
[2] = molecular target: recombinant human His-tagged MDM2 protein (residues 1-118) (Homo sapiens (Human), UniProt Q00987); assay: Fluorescence-polarization MDM2 binding assay;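 note: fluorescence polarization read after three hours of incubation in potassium phosphate buffer containing bovine gamma globulin and Triton X-100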
[3] = system: Isogenic HCT-116 colon cancer cell lines; assay: cells; type: cell-based;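 note: cells grown in 96-well plates in McCoy's 5A medium with 10% FBS, exposed to compound for 4 days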
Protocol: Cells were seeded in 96-well flat bottom cell culture plates at a density of 2−3×10^3 cells/well with compounds and incubated for 4 days.

[4] = Homo sapiens, LNCaP, Table 19A, LNCAP cells, p53 wild-type, cell growth, read-out: LNCAP (p53 wild-type) IC50
[5] = Homo sapiens, SJSA-1, Table 19A, SJSA-1 cells, p53 wild-type, cell growth, read-out: SJSA-1 (p53 wild-type) IC50
[6] = Table 19A, FP binding assay, read-out: MDM2 IC50
[7] = Homo sapiens, HCT-116, read-out: HCT-116 (p53 wild-type) IC50, Table 19A, HCT-116 p53 wild-type, cell growth
[8] = Homo sapiens, LNCaP, Table 19B, LNCaP cells, read-out: Inhibition of cell growth IC50, LNCaP
[9] = Homo sapiens, PC-3, Table 19B, PC3 cells, read-out: Inhibition of cell growth IC50, PC3
[10] = Table 19B, read-out: Binding affinities to MDM2 protein as determined by FP based assay IC50
[11] = Homo sapiens, HCT-116, read-out: Inhibition of cell growth IC50, HCT116 p53 KO, Table 19B, HCT116 p53 KO
[12] = Homo sapiens, HCT-116, read-out: Inhibition of cell growth IC50, HCT116 p53 WT, Table 19B, HCT116 p53 WT
[13] = Homo sapiens, PC-3, Table 19A, PC-3 cells, deleted p53, cell growth, read-out: PC-3 (deleted p53) IC50
[14] = Homo sapiens, HCT-116, read-out: HCT-116 (p53-/-) IC50, Table 19A, HCT-116 p53-/-, cell growth
[15] = Homo sapiens, LNCaP, Table 19C, LNCaP cells, read-out: Cell growth inhibition using WST assay, LNCaP IC50
[16] = Homo sapiens, PC-3, Table 19C, PC3 cells, read-out: Cell growth inhibition using WST assay, PC3 IC50
[17] = Table 19C, read-out: Bidning affinities to MDM2 as determined using FP assay IC50
[18] = Homo sapiens, HCT-116, read-out: Cell growth inhibition using WST assay, HCT116 p53KO IC50, Table 19C, HCT116 p53KO
[19] = Homo sapiens, HCT-116, read-out: Cell growth inhibition using WST assay, HCT116 p53WT IC50, Table 19C, HCT116 p53WT
[20] = Table 19D, read-out: MDM2 Binding Affinities IC50

Chain of recombinant human His-tagged MDM2 protein (residues 1-118) (Q00987 1-118): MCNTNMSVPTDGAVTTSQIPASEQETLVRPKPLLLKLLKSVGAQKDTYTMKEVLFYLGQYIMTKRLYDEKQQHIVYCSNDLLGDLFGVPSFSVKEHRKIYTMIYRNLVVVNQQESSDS

## CC(C)(C)C[C@H]1N[C@@H](C(=O)NC2CCN(CCF)CC2)[C@H](c2cccc(Cl)c2F)[C@@]12C(=O)Nc1cc(Cl)ccc12 [MI-519-56]
[1]; [4]
  IC50: > 10 µM
[1]; [5]
  IC50: < 1 µM
[2]; [6]
  IC50: < 1 µM
[3]; [7]
  IC50: < 1 µM

## CCCC(C)(C)C[C@H]1N[C@@H](C(=O)NCC[C@H](O)CO)[C@H](c2cccc(Cl)c2)[C@@]12C(=O)Nc1cc(Cl)c(F)cc12 [MI-729]
[1]; [8]
  IC50: 1 µM
[1]; [9]
  IC50: 6.1 ± 1.6 µM
[2]; [10]
  IC50: < 1 µM
[3]; [11]
  IC50: 8.9 ± 0.1 µM
[3]; [12]
  IC50: 0.8 ± 0.2 µM

## CC(C)(C)C[C@H]1N[C@@H](C(=O)NC2CCC(OC(=O)[C@@H](N)Cc3ccccc3)CC2)[C@H](c2cccc(Cl)c2F)[C@@]12C(=O)Nc1cc(Cl)ccc12 (stereo partly shown) [MI-910]
[1]; [4]
  IC50: < 3 µM
[1]; [13]
  IC50: 7 µM
[1]; [5]
  IC50: < 3 µM
[2]; [6]
  IC50: < 1 µM
[3]; [14]
  IC50: 9.8 µM
[3]; [7]
  IC50: < 3 µM

## CC(C)(C)C[C@H]1N[C@@H](C(=O)NCC[C@H](O)CO)[C@H](c2cncc(Cl)c2)[C@@]12C(=O)Nc1cc(Cl)c(F)cc12 [MI-319-34]
[1]; [15]
  IC50: < 10 µM
[1]; [16]
  IC50: > 30 µM
[2]; [17]
  IC50: < 10 µM
[3]; [18]
  IC50: > 30 µM
[3]; [19]
  IC50: 9.5 ± 2.1 µM

## CN1[C@@H](C(=O)NCC[C@H](O)CO)[C@H](c2cccc(Cl)c2)[C@@]2(C(=O)Nc3cc(F)ccc32)[C@H]1CC(C)(C)C [MI-519-15-me]
[1]; Homo sapiens, LNCaP, Table 19D, LNCaP cells, read-out: LNCaP IC50
  IC50: 6.4 µM
[1]; Homo sapiens, PC-3, Table 19D, PC3 cells, read-out: PC3 IC50
  IC50: > 10 µM
[2]; [20]
  IC50: < 5 µM
[3]; Homo sapiens, HCT-116, read-out: HCT116p53KO IC50, Table 19D, HCT116 p53KO
  IC50: > 10 µM
[3]; Homo sapiens, HCT-116, read-out: HCT116p53WT IC50, Table 19D, HCT116 p53WT
  IC50: 5.2 µM

## CC(C)(C)C[C@H]1N[C@@H](C(=O)NC2CN(CCO)C2)[C@H](c2cccc(Cl)c2F)[C@@]12C(=O)Nc1cc(Cl)ccc12 [MI-912]
[1]; [4]
  IC50: < 5 µM
[1]; [13]
  IC50: > 5 µM
[1]; [5]
  IC50: < 5 µM
[2]; [6]
  IC50: < 3 µM
[3]; [14]
  IC50: > 10 µM
[3]; [7]
  IC50: < 5 µM

## CN(CC[C@H](O)CO)C(=O)[C@@H]1N[C@H](CC(C)(C)C)[C@]2(C(=O)Nc3cc(Cl)c(F)cc32)[C@H]1c1cccc(Cl)c1 [MI-319-29]
[1]; [15]
  IC50: > 10 µM
[1]; [16]
  IC50: > 10 µM
[2]; [17]
  IC50: > 5 µM
[3]; [18]
  IC50: > 10 µM
[3]; [19]
  IC50: > 10 µM

## CC(C)CC(C)(C)C[C@H]1N(C)[C@@H](C(=O)NCC[C@H](O)CO)[C@H](c2cccc(Cl)c2)[C@@]12C(=O)Nc1cc(Cl)c(F)cc12 [MI-726]
[1]; [8]
  IC50: 2.3 ± 0.3 µM
[1]; [9]
  IC50: 5.1 ± 1.4 µM
[2]; [10]
  IC50: < 5 µM
[3]; [11]
  IC50: 8 ± 0.8 µM
[3]; [12]
  IC50: 2.3 ± 0.8 µM

## CN(C)CCC(=O)N1CCN(C(=O)[C@@H]2N[C@H](CC(C)(C)C)[C@]3(C(=O)Nc4cc(Cl)c(F)cc43)[C@H]2c2cccc(Cl)c2)CC1 [MI-746]
[1]; [4]
  IC50: 2.2 ± 0.4 µM
[1]; [13]
  IC50: 6.9 ± 1.2 µM
[2]; [6]
  IC50: < 10 µM
[3]; [14]
  IC50: 6.7 ± 1.8 µM
[3]; [7]
  IC50: 2.3 ± 0.1 µM

## CC(C)CC(C)(C)C[C@H]1N(C)[C@@H](C(=O)NCC[C@H](O)CO)[C@H](c2ccc(F)c(Cl)c2)[C@@]12C(=O)Nc1cc(F)c(F)cc12 [MI-738]
[1]; [8]
  IC50: 4.8 ± 1 µM
[1]; [9]
  IC50: 8.5 ± 0.6 µM
[2]; [10]
  IC50: > 3 µM
[3]; [11]
  IC50: 8.2 ± 0.6 µM
[3]; [12]
  IC50: 8.5 ± 2.1 µM

## CN1[C@@H](C(=O)NCC[C@H](O)CO)[C@H](c2cccc(Cl)c2)[C@@]2(C(=O)Nc3cc(Cl)c(F)cc32)[C@H]1CC(C)(C)C [MI-708B]
[1]; Table 19B, LNCaP cells, read-out: Inhibition of cell growth IC50, LNCaP
  IC50: 6 ± 0.3 µM
[1]; Table 19B, PC3 cells, read-out: Inhibition of cell growth IC50, PC3
  IC50: 84.5 ± 18.3 µM
[2]; [10]
  IC50: > 3 µM
[3]; read-out: Inhibition of cell growth IC50, HCT116 p53 KO, Table 19B, HCT116 p53 KO
  IC50: 96.9 ± 17.8 µM
[3]; read-out: Inhibition of cell growth IC50, HCT116 p53 WT, Table 19B, HCT116 p53 WT
  IC50: 6.6 ± 2.2 µM

## CC(C)(C)C[C@H]1N[C@@H](C(=O)NCCC2CCC(O)C2)[C@H](c2cccc(Cl)c2)[C@@]12C(=O)Nc1cc(F)c(F)cc12 (stereo partly shown) [MI-519-26]
[1]; Table 19D, LNCaP cells, read-out: LNCaP IC50
  IC50: < 5 µM
[1]; Table 19D, PC3 cells, read-out: PC3 IC50
  IC50: > 10 µM
[2]; [20]
  IC50: < 10 µM
[3]; read-out: HCT116p53KO IC50, Table 19D, HCT116 p53KO
  IC50: > 10 µM
[3]; read-out: HCT116p53WT IC50, Table 19D, HCT116 p53WT
  IC50: < 5 µM

## CC[C@H](C)[C@H](N)C(=O)OC1CCC(NC(=O)[C@@H]2N[C@H](CC(C)(C)C)[C@]3(C(=O)Nc4cc(Cl)ccc43)[C@H]2c2cccc(Cl)c2F)CC1 (stereo partly shown) [MI-904]
[1]; [4]
  IC50: < 3 µM
[1]; [13]
  IC50: 3.1 µM
[1]; [5]
  IC50: < 3 µM
[2]; [6]
  IC50: < 1 µM
[3]; [14]
  IC50: 6.1 µM
[3]; [7]
  IC50: < 3 µM
